# Source: PMC11068671, “New-generation biofilm effective antimicrobial peptides and a real-time anti-biofilm activity assay: CoMIC” (Applied Microbiology and Biotechnology, 2024)
# Non-standard residues stand in square brackets, D forms with d. Residues, ends and D or L forms follow the SMILES beside them.
# How the values were obtained:
# erythrocytes = assay type: cell-based
# Procedure: Hemolytic activity assays were carried out using erythrocytes, using triton X-100 as lysis control agent. Hemolytic activities were analyzed by reading each well with a plate reader spectrophotometer device at 414 nm and the % lysis rate was calculated in Microsoft Excel according to the following formula (Eren et al. [2008]). Lysis%=[OD414-OD414blank]/[OD414totallysis-OD414blank]×100
# in vitro = assay type: cell-based
# Excerpt: (§1) MTT Cell Proliferation Kit (Sigma), a colorimetric method, was used for this test to evaluate the damage that peptides can cause in eukaryotic cells and all cell lines used in this study have been deposited in a collection of the Research Laboratory of Acibadem Mehmet Ali Aydinlar University. The cell lines of 3T3 (ATCC CRL-1658) and HaCaT (ATCC PCS-200-011) were revived under appropriate culture conditions and made ready for the experiment. The final concentration of peptides reached 64 to 0.5 μg/mL. Samples were worked in triplicates for each concentration. Cells incubated without peptide-treatment under the same conditions were used as a control. Magainin II, a known natural AMP that has no cytotoxic effects, was used as a positive control (Bacalum and Radu [2015]). The results were analyzed by reading them with a 96-well plate reader at 550 and 690 nm.
# HaCaT cell line = assay: in vitro; assay type: cell-based
# Excerpt: as §1
# 3T3 cell line = assay: in vitro; assay type: cell-based
# Excerpt: as §1
# S. aureus ATCC25923 = assay type: cell-based
# Excerpt: (§2) NET1, NET2, NET3, and NET4 peptide antibiotics were used in the experiments. For the purpose of the study, both clinical isolates Methicillin-Resistant S. aureus (MRSA), Vancomycin-resistant Enterococcus (VRE), E. coli ER2566, E. coli 13846 bacteria and ATCC strains S. aureus and E. coli bacteria were used in the MIC study. All strains used in this study have been deposited in a strain collection of the Research Laboratory of Acibadem Mehmet Ali Aydinlar University. For experiment 0.5 McFarland bacterial suspension was prepared in Müeller Hinton Broth (MHB) media. In the 96-well plate, serial dilutions of peptide antibiotics starting from 512 to 0 μg/mL were made in MHB media and added 5 µl of bacterial suspensions. After incubated overnight at 37°C, results were evaluated according to turbidity (Teh et al. [2017]). Ampicillin was used as positive controls.
# E. coli ER2566 = assay type: cell-based
# Excerpt: as §2
# S. aureus ATCC29213 = assay type: cell-based
# Excerpt: as §2
# E. coli NTCC13846 = assay type: cell-based
# Excerpt: as §2
# E. coli ATCC25922 = assay type: cell-based
# Excerpt: as §2
# Proteinase K = Proteinase K (Parengyodontium album, UniProt P06873); assay: Protease resistance, Proteinase K treatment with HPLC analysis; assay type: in vitro ADME; conditions: analytical HPLC
# Procedure: Proteinase K was used for testing the resistance of the designed peptides to proteases, since Proteinase K, a serine protease with broad-spectrum cleavage activity that preferentially cleaves aliphatic and aromatic amino acid residues, is widely used in the literature to determine the protease resistance of antimicrobial peptides (Lucio et al. [2017], Wang et al. [2019]). Afterwards, HPLC characterization was performed to understand the effect of Proteinase K on peptides.
# VRE = assay type: cell-based, Vancomycin-resistant Enterococcus
# Excerpt: as §2
# MRSA biofilm [1] = assay: Antibiofilm activity, CoMIC method; assay type: cell-based, Methicillin-resistant S. aureus; conditions: peptides added just before the start of biofilm formation
# Procedure: Ninety microliters of 0.5 McF Methicillin-resistant S. aureus (MRSA) (1.5×10^8 CFU/mL) in Congo Red Broth media with fructose was transferred into wells. Plates were incubated at 37°C. At the time just before the start of biofilm formation as optimized in Fig. 4, 10 µL of 1:2 serial dilutions of the antimicrobial peptides (2560–0 µg/mL) was added in wells. So that, final concentrations of peptides were 256–0 µg/mL. Incubation of media continued overnight. Then, wells were evaluated according to their black color formation.
# MRSA biofilm [2] = assay: Antibiofilm activity, conventional crystal violet (CV) method; assay type: cell-based, Methicillin-resistant S. aureus; conditions: for Peptide concentration inhibiting the biofilm at 100%, Crystal Violet: peptides added at the very beginning of culture; for concentration that could be enough to inhibit the biofilms completely: allowing for deviation of about 16.7 in non-specific CV binding
# Procedure: There was 90 µL of 10^6 CFU/mL MRSA in MHB media with fructose transferred into wells. Then, 10 µL of 1:2 serial dilutions of the antimicrobial peptides (1280–0 µg/mL) was added in wells. So that, final concentrations of peptides were 128–0 µg/mL. Plates were incubated at 37°C overnight. After overnight incubation, they were analyzed with conventional CV method. For this purpose, the bacterial cultures were removed, and wells were washed with distilled water. 200 µl of 1% CV dye was added to each well and incubated at room temperature for 15 min in the dark. Then, CV dye was removed, and wells were washed with water. After dried the plate in an oven at 45–50°C, 33% acetic acid was added into wells to dissolve the dye and wells were spectrophotometrically read by Varioscan (Thermo, USA) at 590 nm (Stepanović et al. [2000]). Biofilm inhibiton rates (%) were calculated by the following formula (Liu et al. [2021]): (1-A590ofwellstreatedwithpeptides/[…])×100
# Before this calculation, the values obtained from all wells were subtracted from the value from the empty wells (Blank).
# MRSA = assay type: cell-based, Methicillin-Resistant S. aureus
# Excerpt: as §2
# S. aureus 29213 biofilm [3] = assay: Real-time monitoring of antibiofilm activity, CoMIC method; assay type: cell-based
# Procedure: (§3) 1:2 serial dilutions of ciprofloxacine (200–0 µg/mL) and sodium hypochlorite (5–0%) were prepared in Congo Red Broth media with sucrose. S. aureus 29213 were added into culture media with a final concentration of 1×10^6 Colony-forming unit/mL (CFU/mL). All cultures were performed as triplicate and incubated at 37°C overnight and fluorescence measurements were conducted by using Varioscan (Thermo, USA). The excitation/emission wavelengths were used as 525/625 nm. As a replica plate, bacteria in the same broth media, except Congo Red were cultured and analyzed with conventional Crystal Violet (CV) method. For this purpose, the bacterial cultures were removed, and wells were washed with distilled water. There was 200 µl of 1% CV dye added to each well and incubated at room temperature for 15 min in the dark. Then, CV dye was removed, and wells were washed with water. After the plate was dry, 33% acetic acid was added into wells to dissolve the dye and wells were spectrophotometrically read by Varioscan (Thermo, USA) at 590 nm (Stepanović et al. [2000]).
# S. aureus 29213 biofilm [4] = assay: Antibiofilm activity, crystal violet (CV) replica plate; assay type: cell-based; conditions: CV method
# Procedure: as §3
# [5] = S. aureus 29213, added at the very beginning of the biofilm culture
# [6] = S. aureus 29213, added just before the start of biofilm formation
# [7] = S. aureus 29213, added in the very beginning
# [8] = S. aureus 29213, added just before biofilm formation
# Proteinase K, sequence (P06873 106-384): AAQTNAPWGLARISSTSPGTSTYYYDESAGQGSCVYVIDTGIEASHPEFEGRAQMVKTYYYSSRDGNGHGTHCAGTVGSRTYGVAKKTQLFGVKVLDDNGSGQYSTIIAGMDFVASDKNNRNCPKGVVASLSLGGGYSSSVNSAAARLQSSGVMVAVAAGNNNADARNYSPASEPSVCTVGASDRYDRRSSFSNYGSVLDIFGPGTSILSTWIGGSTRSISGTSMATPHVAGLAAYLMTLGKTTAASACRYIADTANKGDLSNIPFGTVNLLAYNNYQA
Compound,HC50 value as times the MIC value (erythrocytes),therapeutic index for hemolytic activities (erythrocytes),IC50 (in vitro; human) [µg/mL],IC50 (in vitro; mouse) [µg/mL],IC50 value as times the MIC value (HaCaT cell line),therapeutic index for cytotoxic activities (HaCaT cell line),therapeutic index for cytotoxic activities (3T3 cell line),MIC (S. aureus ATCC25923) [µg/mL],MIC (E. coli ER2566) [µg/mL],MIC (S. aureus ATCC29213) [µg/mL],MIC (E. coli NTCC13846) [µg/mL],MIC (E. coli ATCC25922) [µg/mL],resistance to proteases (HPLC after proteinase K treatment) (Proteinase K),MIC (VRE) [µg/mL],"Peptide concentration inhibiting the biofilm at 100%, CoMIC (MRSA biofilm [1]) [µg/mL]","Peptide concentration inhibiting the biofilm at 100%, Crystal Violet (MRSA biofilm [2]) [µg/mL]",MIC (MRSA) [µg/mL],concentration that could be enough to inhibit the biofilms completely (MRSA biofilm [2]; CV method),MIC for biofilms (S. aureus 29213 biofilm [3]; [5]),MIC for biofilms (S. aureus 29213 biofilm [3]; [6]),other results
"CC(C)C[C@H](NC(=O)[C@H](CC(C)C)NC(=O)[C@H](CC(C)C)NC(=O)[C@H](CCCNC(=N)N)NC(=O)[C@H](CC(C)C)NC(=O)[C@H](CC(C)C)NC(=O)[C@H](CCCNC(=N)N)NC(=O)[C@H](CCCNC(=N)N)NC(=O)[C@H](CC(C)C)NC(=O)[C@H](CC(C)C)NC(=O)[C@H](CCCNC(=N)N)NC(=O)[C@H](CC(C)C)NC(=O)[C@H](CC(C)C)NC(=O)[C@H](CC(C)C)NC(=O)[C@@H](N)CCCNC(=N)N)C(=O)N[C@@H](CCCNC(=N)N)C(N)=O [NET2, RLLLRLLRRLLRLLLR-NH2] (H-RLLLRLLRRLLRLLLR-NH2; N-terminus assumed)",2–8 times,1,> 128,> 128,2-4 times,2,2,32,4,64,64,64,completely degraded,2,>256,128,64,–,–,–,concentration that provided over 50% biofilm inhibition (MRSA biofilm [2]; CV method): 64 µg/mL
"CC(C)C[C@H](NC(=O)[C@H](N)CCCNC(=N)N)C(=O)N[C@@H](CC(C)C)C(=O)N[C@@H](CC(C)C)C(=O)N[C@H](CCCNC(=N)N)C(=O)N[C@@H](CC(C)C)C(=O)N[C@@H](CC(C)C)C(=O)N[C@H](CCCNC(=N)N)C(=O)N[C@H](CCCNC(=N)N)C(=O)N[C@@H](CC(C)C)C(=O)N[C@@H](CC(C)C)C(=O)N[C@H](CCCNC(=N)N)C(=O)N[C@@H](CC(C)C)C(=O)N[C@@H](CC(C)C)C(=O)N[C@@H](CC(C)C)C(=O)N[C@H](CCCNC(=N)N)C(N)=O [NET3, RLLLRLLRRLLRLLLR-NH2] (H-[dR]LLL[dR]LL[dR][dR]LL[dR]LLL[dR]-NH2; N-terminus assumed)",16–32 times,32,64,32,16-32 times,32,16,2,0.5,2,2,4,not fractionated by proteases,0.5,128,4,2,less than 1 µg/mL,–,–,–
"CC(C)C[C@@H](NC(=O)[C@H](N)CCCNC(=N)N)C(=O)N[C@H](CC(C)C)C(=O)N[C@H](CC(C)C)C(=O)N[C@H](CCCNC(=N)N)C(=O)N[C@H](CC(C)C)C(=O)N[C@H](CC(C)C)C(=O)N[C@H](CCCNC(=N)N)C(=O)N[C@H](CCCNC(=N)N)C(=O)N[C@H](CC(C)C)C(=O)N[C@H](CC(C)C)C(=O)N[C@H](CCCNC(=N)N)C(=O)N[C@H](CC(C)C)C(=O)N[C@H](CC(C)C)C(=O)N[C@H](CC(C)C)C(=O)N[C@H](CCCNC(=N)N)C(N)=O [NET4, RLLLRLLRRLLRLLLR-NH2] (H-[dR][dL][dL][dL][dR][dL][dL][dR][dR][dL][dL][dR][dL][dL][dL][dR]-NH2; N-terminus assumed)",–,4,> 128,> 128,4-16 times,8,8,16,1,16,32,8,not fractionated by proteases,2,>256,128,16,64 µg/mL,–,–,cytotoxicity at 64 µg/ml (in vitro; human): > 50%
O=C(O)c1cn(C2CC2)c2cc(N3CCNCC3)c(F)cc2c1=O [ciprofloxacin],–,–,–,–,–,–,–,–,–,–,–,–,–,–,–,–,–,–,50 µg/mL,> 200 µg/mL,MIC for biofilms (S. aureus 29213 biofilm [4]; [7]): 12.5 µg/mL; MIC for biofilms (S. aureus 29213 biofilm [4]; [8]): > 200 µg/mL
[Na+].[O-]Cl [sodium hypochlorite],–,–,–,–,–,–,–,–,–,–,–,–,–,–,–,–,–,–,1.25%,1.25%,MIC for biofilms (S. aureus 29213 biofilm [4]; [7]): 1.25%; MIC for biofilms (S. aureus 29213 biofilm [4]; [8]): 5%
